Reference: US20250230138A1, “COMPOUNDS HAVING A T-STRUCTURE FORMED BY AT LEAST FOUR CYCLES FOR USE IN THE TREATMENT OF CANCER AND OTHER INDICATIONS” (TheRas, Inc., priority 2022, published 2025)
Like-named read-outs stand apart in the source and are kept apart here.

Legend:
[1] = biological target: KRAS-PI3Kα interaction (KRAS-Q25A binding to avi-tagged full length PI3Kα) (Homo sapiens (Human), UniProt P42336); assay: Disrupting KRAS-PI3Kα interaction by SPR inhibition assay; details: KRAS-Q25A at 20 μM, 25° C.
Procedure: SPR binding experiments were collected on a Biacore 8K Instrument (Cytiva). Neutravidin (Pierce) was amine coupled to the carboxymethylated dextran surface of a CM5 sensor chip (Cytiva) using standard amine coupling chemistry. The CM5 chip surface was first activated with 0.1 M N-hydroxy succinimide and 0.4 M N-ethyl-N′-(3-dimethyl aminopropyl) carbodiimide at a flow rate of 20 μL/min using 20 mM HEPES pH 7.4, 150 mM NaCl as the running buffer. Next, neutravidin was diluted to 20 μg/mL in 10 mM sodium acetate (pH 4.5) and injected on all flow cells until a density of approximately 10,000 response units (RU) was immobilized. Activated amine groups were quenched with an injection of 1 M ethanolamine (pH 8.0). 300-500 RU of avi-tagged full length PI3Kα was captured on all flow cells in 20 mM HEPES pH 7.4, 150 mM NaCl, 5 mM MgCl2, 1 mM TCEP, 0.05% tween 20, 5% DMSO buffer. KRAS-Q25A at 20 μM was mixed with 8 concentrations of compound (50 nM-100 μM) and injected over the full-length PI3Kα at 30 μL/min and 25° C. Steady-state levels of KRAS binding were recorded and fit with a 4-parameter inhibition model to determine the IC50 values.

pAKT in BT474 cells = assay: Cell-based pAKT HTRF assay in BT474 cells
In short: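 BT474 cells in DMEM/10% FBS were treated the day after seeding with a 9-point, 3-fold compound series from 3 μM (0.25% DMSO) for 4 hr. Lysates were mixed with d2 and Eu cryptate anti-pAKT antibodies and incubated 4-24 h at room temperature. HTRF was read with excitation at 320 nm and emission at 615 nm.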

[2] = test system: pAKT in Tet-on KRAS G12D HeLa cells; assay: Cell-based pAKT HTRF assay in Tet-on KRAS G12D HeLa cells; details: read-out: pAKT inhibition IC50 in Tet-on KRAS G12D HeLa cells
Procedure: To determine the effectiveness of compounds in disrupting PIK3CA/KRAS signaling in cells, we implemented pAKT HTRF assay (Perkin-Elmer) in Tet-on KRAS G12D HeLa cells.
On Day 1, cells were seeded into 96-well plates at 2×10^4 cells/well in complete growth media (DMEM, 10% Tet-Screened FBS) supplemented with 200 ng/mL doxycycline.
On Day 2, cells were treated with compounds at 0.25% DMSO. The source plate was created with compounds diluted in media at 5-fold the final assay concentration. The compounds are run in a 9-point concentration curve starting at 75 μM, with a 3-fold dilution between concentrations. […] 20 μL was transferred onto the cell plates (final volume in wells was 100 μL). Plates were harvested after 30 min and 4 hr incubation by aspirating media and adding kit-supplied 1× supplemented lysis buffer to all wells (50 μL per well). This then changed to 4 hr only when compounds became covalent. Plates were then placed on a plate shaker and incubated at 850 rpm for an additional 30 min. The antibody mixture solution was prepared by diluting aliquoted d2 and Eu Cryptate antibodies 1:20 in kit supplied detection buffer, then mixed the diluted antibodies solutions (1:1 v:v). 4 μL of this solution was then added to a 384-well detection plate (Perkin Elmer; 6008230). Samples were homogenized by pipetting up and down and then transferred (16 μL of cell lysates) from the 96-well cell culture plate to two wells of the HTRF 384-well detection plate containing the antibody solution. Plates were centrifuged (524 g for 1 min) and allowed to incubate between 4 and 24 h at room temperature. The maximum signal is reached after 4 h incubation time and remains stable over a period of 24 hours. Therefore, readings can be made between 4 and 24 h of incubation. Plates were centrifuged again (524 g for 1 min), and analyzed on the EnVision plate reader using the following settings: Excitation 320 nm, Bandwidth […]; Emission 615 nm, Bandwidth […], Gain 100%, Flashes 100, Lag 60 μs.

[3] = Homo sapiens, BT-474, BT474 cells, 4 hr incubation, Compounds 10-999, read-out: pAKT inhibition IC50 in BT474 cells
[4] = BT474 cells, 4 hr incubation, Compounds 10-999, read-out: pAKT inhibition IC50 in BT474 cells

KRAS-PI3Kα interaction (KRAS-Q25A binding to avi-tagged full length PI3Kα), sequence (P42336 whole entry, looked up, stated change not applied): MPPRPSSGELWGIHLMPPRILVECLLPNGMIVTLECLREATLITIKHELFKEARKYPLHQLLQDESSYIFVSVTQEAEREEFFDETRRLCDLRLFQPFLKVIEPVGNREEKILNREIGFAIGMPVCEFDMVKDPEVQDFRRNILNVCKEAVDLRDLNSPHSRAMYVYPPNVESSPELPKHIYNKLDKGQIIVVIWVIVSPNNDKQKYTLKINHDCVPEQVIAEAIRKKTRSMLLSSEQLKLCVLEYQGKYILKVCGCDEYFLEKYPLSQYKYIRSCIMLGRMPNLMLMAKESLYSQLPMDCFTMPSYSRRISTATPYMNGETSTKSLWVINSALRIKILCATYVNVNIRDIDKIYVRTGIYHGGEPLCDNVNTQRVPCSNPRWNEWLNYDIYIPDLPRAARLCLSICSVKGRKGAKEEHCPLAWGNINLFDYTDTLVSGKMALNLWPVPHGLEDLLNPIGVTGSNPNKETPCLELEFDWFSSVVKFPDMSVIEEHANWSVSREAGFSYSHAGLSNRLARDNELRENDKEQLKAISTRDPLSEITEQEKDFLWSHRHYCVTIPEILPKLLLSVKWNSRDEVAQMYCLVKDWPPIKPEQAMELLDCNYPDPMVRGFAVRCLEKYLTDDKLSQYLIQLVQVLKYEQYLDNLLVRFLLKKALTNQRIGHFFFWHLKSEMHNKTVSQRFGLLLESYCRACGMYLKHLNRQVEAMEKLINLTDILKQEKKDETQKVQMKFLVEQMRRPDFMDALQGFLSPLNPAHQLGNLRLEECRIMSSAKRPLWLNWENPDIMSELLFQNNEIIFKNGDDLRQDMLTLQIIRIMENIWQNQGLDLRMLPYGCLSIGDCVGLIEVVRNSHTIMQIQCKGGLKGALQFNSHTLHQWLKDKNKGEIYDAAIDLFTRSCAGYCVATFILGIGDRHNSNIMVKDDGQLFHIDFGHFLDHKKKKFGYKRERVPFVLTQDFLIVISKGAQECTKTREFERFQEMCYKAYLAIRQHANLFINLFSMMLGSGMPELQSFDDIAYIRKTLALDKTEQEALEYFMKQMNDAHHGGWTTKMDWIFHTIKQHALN
KRAS-PI3Kα interaction (KRAS-Q25A binding to avi-tagged full length PI3Kα), sequence (P27986 whole entry partner, looked up): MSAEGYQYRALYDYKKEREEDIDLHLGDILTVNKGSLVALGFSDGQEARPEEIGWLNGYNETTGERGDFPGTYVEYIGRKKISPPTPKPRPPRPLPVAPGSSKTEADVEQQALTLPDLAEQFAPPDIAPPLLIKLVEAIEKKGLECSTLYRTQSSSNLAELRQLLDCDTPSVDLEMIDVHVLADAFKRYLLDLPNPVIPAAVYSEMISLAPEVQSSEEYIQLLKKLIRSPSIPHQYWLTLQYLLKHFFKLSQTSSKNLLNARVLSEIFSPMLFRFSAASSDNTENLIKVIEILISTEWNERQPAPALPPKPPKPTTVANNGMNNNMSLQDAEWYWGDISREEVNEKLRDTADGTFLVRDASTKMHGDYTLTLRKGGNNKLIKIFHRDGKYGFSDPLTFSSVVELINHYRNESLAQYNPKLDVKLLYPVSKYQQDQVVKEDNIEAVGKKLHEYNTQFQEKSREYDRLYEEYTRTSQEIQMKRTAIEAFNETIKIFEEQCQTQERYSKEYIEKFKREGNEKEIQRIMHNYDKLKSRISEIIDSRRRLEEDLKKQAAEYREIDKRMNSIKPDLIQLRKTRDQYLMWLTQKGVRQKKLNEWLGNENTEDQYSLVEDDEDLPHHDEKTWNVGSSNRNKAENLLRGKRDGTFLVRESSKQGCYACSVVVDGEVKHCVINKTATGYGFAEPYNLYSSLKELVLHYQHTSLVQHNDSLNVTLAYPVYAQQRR

SMILES | IC50 [1] [µM] | IC50 (pAKT in BT474 cells; Homo sapiens, BT-474, BT474, free fraction adjusted, read-out: in vitro BT474 pAKT free fraction adjusted IC50) [µM] | IC50 (pAKT in BT474 cells; Homo sapiens, BT-474, BT474 cell line, read-out: pAKT (IC50)) [µM] | IC50 (pAKT in BT474 cells; [3]) [µM] | IC50 (pAKT in BT474 cells; [4]) [µM] | IC50 ([2]; Tet-on KRAS G12D HeLa cells) [µM] | IC50 ([2]; Homo sapiens, HeLa) [µM]
C=CC(=O)N1CCc2nc(-c3nc(-c4ccc5c(c4)CCNC5)c4ccsc4c3-c3ccc(F)cc3OCCOC)sc2C1 [Compound 58, 1-[2-[7-[4-fluoro-2-(2-methoxyethoxy)phenyl]-4-(1,2,3,4-tetrahydroisoquinolin-6-yl)thieno[3,2-c]pyridin-6-yl]-6,7-dihydro-4H-thiazolo[5,4-c]pyridin-5-yl]prop-2-en-1-one] | 5 to 25 | 1.44 | 0.034 | < 0.1 |  |  | 
C=CC(=O)N1CC[C@H](n2cc(-c3nc(-c4ccc5c(c4)CCNC5)c4ccsc4c3-c3ccc(F)cc3OCCOC)cn2)C1 [compound 47] | 5 to 25 |  |  |  | < 0.1 | < 1 | 
C=CC(=O)N1CC(n2cc(-c3nc(-c4ccc5c(c4)CCNC5)c4ccsc4c3-c3ccc(F)cc3OCCOC)cn2)C1 [Compound 44, 1-[3-[4-[7-[4-fluoro-2-(2-methoxyethoxy)phenyl]-4-(1,2,3,4-tetrahydroisoquinolin-6-yl)thieno[3,2-c]pyridin-6-yl]pyrazol-1-yl]azetidin-1-yl]prop-2-en-1-one] | 5 to 25 |  |  | < 0.1 |  |  | < 1
C=CC(=O)Nc1cccc(-c2nc(-c3ccc4c(c3)CCNC4)c3ccsc3c2-c2ccc(F)cc2OCCOC)c1 [Compound 12, N-[3-[7-[4-fluoro-2-(2-methoxyethoxy)phenyl]-4-(1,2,3,4-tetrahydroisoquinolin-6-yl)thieno[3,2-c]pyridin-6-yl]phenyl]prop-2-enamide] | < 5 |  |  | 0.1 to 1 |  |  | 1 to 10
C=CC(=O)N1CCCC(n2cc(-c3nc(-c4ccc5c(c4)CCNC5)c4ccsc4c3-c3ccc(F)cc3OCCOC)cn2)C1 (stereo not shown) [compound 31] | < 5 |  |  |  | < 0.1 | < 1 | 
C=CC(=O)Nc1cccc(-c2nc(-c3ccc4c(c3)CNC(=O)C4)c3ccsc3c2-c2ccc(F)cc2OCCOC)c1 [compound 51] | 5 to 25 |  |  |  | 0.1 to 1 | < 1 | 
C=CC(=O)N1CCc2ccc(-c3nc(-c4ccc5c(c4)CCNC5)c4ccsc4c3-c3ccc(F)cc3OCCOC)cc2C1 [compound 42] | < 5 |  |  |  | < 0.1 | < 1 | 
